Measurements as given in ChEMBL document CHEMBL3046263, “Isolation, characterization, antibacterial, antihelminthic, and in silico studies of polyprenol from Kirganelia reticulata Baill” (2013).
Converted amounts (≈) assume the structure as drawn.

Experiments:
Assay type in all cases: functional
Metaphire posthuma [1] = test: Antihelminthic activity against Pheretima posthuma assessed as death time at 100 mg/ml (reference value: 198.33 +/-2.61 min)
Staphylococcus aureus [2] = test: Antibacterial activity against Staphylococcus aureus assessed as diameter of growth inhibition zone at 100 mg/ml after 24 hr by agar well diffusion method; settings: read-out: DIZ
Pseudomonas aeruginosa [3] = test: Antibacterial activity against Pseudomonas aeruginosa after 24 hr by microbroth dilution method
Salmonella typhi [4] = test: Antibacterial activity against Salmonella enterica subsp. enterica serovar Typhi assessed as diameter of growth inhibition zone at 100 mg/ml after 24 hr by agar well diffusion method; settings: read-out: DIZ
Escherichia coli [5] = test: Antibacterial activity against Escherichia coli assessed as diameter of growth inhibition zone at 100 mg/ml after 24 hr by agar well diffusion method; settings: read-out: DIZ
Metaphire posthuma [6] = test: Antihelminthic activity against Pheretima posthuma assessed as death time at 50 mg/ml (reference value: 198.33 +/-2.61 min)
Staphylococcus aureus [7] = test: Antibacterial activity against Staphylococcus aureus after 24 hr by microbroth dilution method
Metaphire posthuma [8] = test: Antihelminthic activity against Pheretima posthuma assessed as paralysis time at 50 mg/ml (reference value: 63.33 +/-0.87 min)
Salmonella typhi [9] = test: Antibacterial activity against Salmonella enterica subsp. enterica serovar Typhi assessed after 24 hr by microbroth dilution method
Metaphire posthuma [10] = test: Antihelminthic activity against Pheretima posthuma assessed as death time at 200 mg/ml (reference value: 198.33 +/-2.61 min)
Pseudomonas aeruginosa [11] = test: Antibacterial activity against Pseudomonas aeruginosa assessed as diameter of growth inhibition zone at 100 mg/ml after 24 hr by agar well diffusion method; settings: read-out: DIZ
Metaphire posthuma [12] = test: Antihelminthic activity against Pheretima posthuma assessed as paralysis time at 150 mg/ml (reference value: 63.33 +/-0.87 min)
Metaphire posthuma [13] = test: Antihelminthic activity against Pheretima posthuma assessed as death time at 150 mg/ml (reference value: 198.33 +/-2.61 min)
Metaphire posthuma [14] = test: Antihelminthic activity against Pheretima posthuma assessed as paralysis time at 200 mg/ml (reference value: 63.33 +/-0.87 min)
Metaphire posthuma [15] = test: Antihelminthic activity against Pheretima posthuma assessed as paralysis time at 100 mg/ml (reference value: 63.33 +/-0.87 min)
Escherichia coli [16] = test: Antibacterial activity against Escherichia coli after 24 hr by microbroth dilution method

| Compound | Time (Metaphire posthuma [1]) [min] | zone of inhibition at 100000 µg/mL (Staphylococcus aureus [2]) [mm] | MBC (Pseudomonas aeruginosa [3]) [µg/mL] | MIC (Pseudomonas aeruginosa [3]) [µg/mL] | zone of inhibition at 100000 µg/mL (Salmonella typhi [4]) [mm] | zone of inhibition at 100000 µg/mL (Escherichia coli [5]) [mm] | Time (Metaphire posthuma [6]) [min] | MBC (Staphylococcus aureus [7]) [µg/mL] | MIC (Staphylococcus aureus [7]) [µg/mL] | Time (Metaphire posthuma [8]) [min] | MBC (Salmonella typhi [9]) [µg/mL] | MIC (Salmonella typhi [9]) [µg/mL] | Time (Metaphire posthuma [10]) [min] | zone of inhibition at 100000 µg/mL (Pseudomonas aeruginosa [11]) [mm] | Time (Metaphire posthuma [12]) [min] | Time (Metaphire posthuma [13]) [min] | Time (Metaphire posthuma [14]) [min] | Time (Metaphire posthuma [15]) [min] | MBC (Escherichia coli [16]) [µg/mL] | MIC (Escherichia coli [16]) [µg/mL] |
| --- | --- | --- | --- | --- | --- | --- | --- | --- | --- | --- | --- | --- | --- | --- | --- | --- | --- | --- | --- | --- |
| C/C(=C/CC/C=C/CO)CC/C=C(/C)CC/C=C(\C)CO [POLYPRENOL] | 55.13 | 9.1 | 12.5 (≈ 42.7 µM) | 6.25 (≈ 21.4 µM) | 13.1 | 5.6 | 81.7 | 25 (≈ 85.5 µM) | 12.5 (≈ 42.7 µM) | 51.57 | 12.5 (≈ 42.7 µM) | 6.25 (≈ 21.4 µM) | 44.47 | 14.7 | 39.63 | 48.5 | 36.17 | 43.37 | 25 (≈ 85.5 µM) | 12.5 (≈ 42.7 µM) |
| O=C(O)c1cn(C2CC2)c2cc(N3CCNCC3)c(F)cc2c1=O [CIPROFLOXACIN] | – | 18.1 | 6.25 (≈ 18.9 µM) | – | 29 | 10.2 | – | 12.5 (≈ 37.7 µM) | – | – | 6.25 (≈ 18.9 µM) | 3.12 (≈ 9.43 µM) | – | 31.8 | – | – | – | – | 12.5 (≈ 37.7 µM) | – |
| C1CNCCN1.C1CNCCN1.C1CNCCN1.O.O=C(O)CC(O)(CC(=O)O)C(=O)O.O=C(O)CC(O)(CC(=O)O)C(=O)O [PIPERAZINE CITRATE] | – | – | – | – | – | – | 40.72 | – | – | 32.44 | – | – | – | – | – | – | – | – | – | – |
